Test results from patent publication US5667825A (Kellogg Company, priority 1996, dated 1997).
“Also recorded” adds a separate entry of the source.

Tests used:
[1] = Oxidative stability of iron fortified cereals in hot room (hexanal, rancid odor, off odor); format: physicochemical; details: for Off Odor Value / Rancid Odor Value / Hexanal Value: measured at two and four weeks (interval of value not stated); for Hexanal Value: ± 95% confidence interval
Experimental: The feasibility of using other iron sources was also tested. […] The individual tests are discussed in further detail below.
These samples were used for comparative stability and sensory analysis.
In order to test the stability of the iron fortified cereals, the R-T-E cereal samples prepared using four different sources of iron were placed in a hot room and exposed to a temperature of 100° F. over a four week period. Measurements were taken at two and four week intervals.

[2] = in some diets; cited from earlier work
Sprague Dawley rats = experiment: Rat hemoglobin regeneration method, relative iron bioavailability (modified AOAC); format: in vivo
Experimental: The relative iron availability of various iron compounds in a ready-to-eat breakfast cereal was tested using a widely accepted method, commonly referred to as the rat hemoglobin regeneration method, (modified AOAC method for assessment of relative iron bioavailability), see Williams, S. ed. Official methods of analysis of the Association of Official Analytical Chemists, 14th ed. Arlington, Va. AOAC, 1984; Fritz, J. C. et al., Collaborative Study of rat hemoglobin repletion test for bioavailability of iron, AOAC 1974, 57: 513-517. The testing for relative bioavailability of the various iron compounds was carried out in a series of separate experiments. In each of these experiments, ferrous sulfate was used as the standard or control compound.
Sprague Dawley rats, individually housed in temperature and light controlled units, were fed an iron deficient diet obtained from Harland Tekland Laboratories for 24 days. After this iron depletion phase, the rats were weighed and blood was drawn to test for baseline hemoglobin concentrations. These anemic animals, with hemoglobin levels between […], were then randomly assigned to the control and test groups. Ferrous sulfate and the iron compounds in the cereal were added at concentrations of 6 and 18 and 24 mg iron/kg to the control and test diets. These diets were then fed to groups of ten animals, ad libitum, for 14 days. Iron levels in the diets, were verified by atomic absorption spectrometry (Bolin et al., J. Assoc. Off. Anal. Chem. 1977, 60: 1170-1174). After the 14 day test period, hemoglobin concentrations were determined for all animals.
The bioavailability of each iron source tested relative to ferrous sulfate, was calculated by comparing gain in hemoglobin with the iron concentration in the diet by the slope ratio procedure (Finney, D. J., Statistical methods in biological assay. 2nd ed. 1964; Amine et L., Biological assessment of available iron in food products, J. Agric. Food Chem. 1974, 22: 470-476.). […]

Molecule	Off Odor Value ([1]; hot room 100° F.)	Rancid Odor Value ([1]; hot room 100° F.)	Hexanal Value ([1]; hot room 100° F.)	Bioavailability versus FeSO4 complex [2]	Stability in continuing stability tests ([1]; expected in continuing tests)	Oxidative stability (rancid odor, off odor, hexanal), result in words ([1]; hot room 100° F., four weeks)	Slope Value (gain in hemoglobin vs iron concentration in the diet) (Sprague Dawley rats; 6, 18 and 24 mg iron/kg diet, 14 days, ± 95% confidence interval)	Iron bioavailability / absorption, result in words (Sprague Dawley rats; anemic rats, versus ferrous sulfate and reduced iron)	Slope Ratio (bioavailability relative to ferrous sulfate) (Sprague Dawley rats; rat, in vivo, 20160 min)
O=C([O-])/C=C/C(=O)[O-].[Fe+2] [Ferrous Fumarate, ferrous fumarate, reference compound]	2.67 ± 0.41	2.89 ± 0.62	2.37 ± 1.00						
O=C([O-])CN(CCN(CC(=O)[O-])CC(=O)[O-])CC(=O)[O-].[Fe+3].[Na+] [Ferric EDTA, sodium ferric ethylenediaminetetraacetic acid complex]	0.78 ± 0.44	0.56 ± 0.43	0.40 ± 0.22	two to three times more bioavailable	expected to improve in stability in comparison to the other ferric samples tested	statistically significant lower level of rancid odor, off odor and hexanal value; also recorded: most stable of the products tested with the lowest hexanal, rancid odor and off odor values	0.31 ± 0.03	absorbed at a rate not significantly different from ferrous sulphate and significantly better than reduced iron; also recorded: superior in bioavailability to reduced iron	
ferrous sulfate [reference compound]	2.33 ± 0.48	1.22 ± 0.57	2.13 ± 2.02						1.00
